Test results reported in ChEMBL document CHEMBL1201862, “PubChem BioAssay data set” (2004).
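Where inhibition never reached the appropriate level, the endpoint shown equals the highest concentration tested. Otherwise, values were interpolated linearly from a five-concentration, 48-hour dose response in 96-well plates. Abbreviation: GI50, concentration required for 50% inhibition of growth.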 Activity calls are given as the source filed them. No stated cut-off is given here; in the data, active = GI50 up to about 1.1 µM and inactive = higher.

Columns and labels:
Experiment in all cases: growth of human tumour cells (NCI), 48 h
SNB-19 = test system: SNB-19
OVCAR-5 = test system: OVCAR-5
SR = test system: SR
MOLT-4 = test system: MOLT-4
HCT-15 = test system: HCT-15
KM12 = test system: KM12
OVCAR-3 = test system: OVCAR-3
SNB-75 = test system: SNB-75
Malme-3M = test system: Malme-3M
NCI-H522 = test system: NCI-H522
UACC-62 = test system: UACC-62
786-0 = test system: 786-0
TK-10 = test system: TK-10
HOP-92 = test system: HOP-92
CCRF-CEM = test system: CCRF-CEM
ACHN = test system: ACHN
A549 = test system: A549
MDA-MB-231 = test system: MDA-MB-231
Hs-578T = test system: Hs-578T

Measured: GI50

CN(C)CCCNc1ccc2ncn3c4ccccc4c(=O)c1c23
inactive: SNB-19 20.3 µM | OVCAR-5 10.7 µM | SR 2.94 µM | MOLT-4 2.91 µM | KM12 5.87 µM | OVCAR-3 16 µM | SNB-75 10.5 µM | Malme-3M 13.7 µM | NCI-H522 6.17 µM | UACC-62 12.8 µM | 786-0 4.52 µM | TK-10 14.8 µM | HOP-92 5.9 µM | CCRF-CEM 4.39 µM | ACHN 4.81 µM
8.53 µM: HCT-15

COc1ccccc1/C=C1\NC(=S)N(/C=C2\C(=O)Oc3ccccc3C2=O)C1=O
32.2 µM: HCT-15
inactive: SNB-19 38.2 µM | A549 51.6 µM | OVCAR-5 > 100 µM | MOLT-4 11 µM | MDA-MB-231 40.7 µM | KM12 47 µM | OVCAR-3 32.1 µM | SNB-75 30.1 µM | NCI-H522 39.4 µM | UACC-62 23.3 µM | 786-0 52.5 µM | TK-10 33.5 µM | HOP-92 7.76 µM | CCRF-CEM 23.4 µM | Hs-578T > 100 µM | ACHN 55.6 µM

Cc1cc(C)c(S(=O)(=O)N2CCN(S(=O)(=O)c3c(C)cc(C)cc3C)OCCCCCO2)c(C)c1
> 100 µM: HCT-15
inactive: SNB-19 > 100 µM | A549 > 100 µM | OVCAR-5 > 100 µM | MOLT-4 > 100 µM | KM12 > 100 µM | OVCAR-3 > 100 µM | Malme-3M > 100 µM | NCI-H522 > 100 µM | UACC-62 > 100 µM | 786-0 > 100 µM | TK-10 > 100 µM | HOP-92 62.1 µM | CCRF-CEM > 100 µM | Hs-578T > 100 µM | ACHN > 100 µM

C=C1CCC2C(C)(CO)C(O)CCC2(C)C1C/C=C1/CCOC1=O (stereo not drawn)
> 100 µM: HCT-15
inactive: SNB-19 > 100 µM | A549 > 100 µM | OVCAR-5 > 100 µM | SR > 100 µM | MOLT-4 > 100 µM | KM12 > 100 µM | OVCAR-3 > 100 µM | SNB-75 > 100 µM | Malme-3M > 100 µM | NCI-H522 31.3 µM | UACC-62 > 100 µM | 786-0 > 100 µM | TK-10 > 100 µM | HOP-92 > 100 µM | CCRF-CEM > 100 µM | ACHN > 100 µM

NC(=O)C12CCC1C1CCCCC12N1CCOCC1 (stereo not drawn)
inactive: SNB-19 > 100 µM | A549 > 100 µM | OVCAR-5 > 100 µM | SR > 100 µM | MOLT-4 > 100 µM | KM12 > 100 µM | OVCAR-3 > 100 µM | SNB-75 > 100 µM | Malme-3M > 100 µM | NCI-H522 > 100 µM | UACC-62 > 100 µM | 786-0 > 100 µM | TK-10 > 100 µM | HOP-92 > 100 µM | CCRF-CEM > 100 µM | ACHN > 100 µM
> 100 µM: HCT-15

NS(=O)(=O)c1ccc(NC(=O)Cc2nc3ccccc3s2)cc1
17.7 µM: HCT-15
inactive: SNB-19 23.5 µM | A549 20.6 µM | OVCAR-5 20.7 µM | SR 20.1 µM | MOLT-4 20.1 µM | KM12 16.3 µM | OVCAR-3 16.8 µM | SNB-75 16.4 µM | Malme-3M 16 µM | NCI-H522 18.1 µM | UACC-62 15.7 µM | 786-0 19.4 µM | TK-10 24.1 µM | HOP-92 16.2 µM | CCRF-CEM 13.4 µM | ACHN 15.5 µM

Cc1ccc(NC(=O)CC2C(=O)Nc3ccccc3[S+]2[O-])cc1C (stereo not drawn)
> 100 µM: HCT-15
inactive: SNB-19 46 µM | A549 > 100 µM | OVCAR-5 > 100 µM | SR 63.5 µM | MOLT-4 25.5 µM | OVCAR-3 40.6 µM | SNB-75 > 100 µM | Malme-3M > 100 µM | NCI-H522 32.1 µM | UACC-62 > 100 µM | 786-0 24.8 µM | TK-10 > 100 µM | HOP-92 26 µM | CCRF-CEM > 100 µM | ACHN 73.8 µM

COC(=O)C1Cc2c(n(C)c3ccccc23)C(c2ccccc2)N1 (stereo not drawn)
14.2 µM: HCT-15
inactive: SNB-19 > 100 µM | A549 > 100 µM | OVCAR-5 > 100 µM | SR 67.9 µM | MOLT-4 29.6 µM | KM12 > 100 µM | OVCAR-3 53 µM | SNB-75 > 100 µM | Malme-3M > 100 µM | NCI-H522 16.9 µM | UACC-62 62.8 µM | 786-0 80 µM | TK-10 > 100 µM | HOP-92 > 100 µM | CCRF-CEM 52.1 µM | ACHN 39.3 µM
